row,Compound,melting point
1,C[C@H]1[C@H](N)CN1C(c1ccccc1)c1ccccc1 (relative stereo),68 to 69 °C
2,O=C(CCCC(=O)N1C(=O)OC[C@@H]1c1ccccc1)c1ccc(F)cc1,91 °C
3,O=C(O)CC1CCCc2c1n(Cc1ccc(Cl)cc1)c1c(F)cc(F)cc21 (stereo not given),130 to 131 °C
4,O=c1sc(=Nc2ccc(Cl)cc2)n2n1CCCC2,82 to 85 °C
5,Cn1nnc2cc3c(cc2c1=O)OC1CCCN1C3=O (stereo not given),249 to 251 °C
6,COc1ccn2nc(-c3ccccc3)c(-c3ccc(=O)n(C4CCOC4)n3)c2c1 (stereo not given),207 to 208 °C
7,Cc1nc[nH]c1CSCCNC1=Nc2ccccc2C(=O)C1,121 to 124 °C
8,O=C(NCCCl)Nc1ccc2[nH]ccc2c1,159 to 161 °C
9,CCCC1(CCC)c2cc(Br)ccc2-c2cc(OC)c(Br)cc21,127 to 132 °C
10,Cc1cnc(C2=NC(C)(C(C)C)C(=O)N2)c(C(=O)C(=O)N(C)C)c1 (stereo not given),180 to 182 °C
11,CC(C)(C)OC(=O)N1CSCC1C(=O)Nc1ccc(-n2nc(C(F)(F)F)cc2C(F)(F)F)cc1 (stereo not given),82 to 84 °C
12,Cn1c2ccc(Cl)cc2c(=O)n2nc(C#N)cc12,350 °C
13,COC(=O)Cc1ccc(C(=O)c2ccc(OC)cc2)n1C,104 to 105 °C
14,O=C(O)C(=O)c1ccc(OCCOc2ccc3ccccc3c2)c([N+](=O)[O-])c1,164 °C
15,CC(=O)N1CCC(O)(C(=O)c2ccc(F)cc2)CC1,146 to 149 °C
16,COc1ccc(C(=O)Cc2ccc(OC)c(F)c2)cc1,117 to 118 °C
17,Clc1ccc(-c2nc3ccccc3nc2Cl)c(Cl)c1,140 to 150 °C
18,CN(C)C(C(=O)C1CCCCC1)C1(c2ccc(Cl)c(Cl)c2)CCC1 (stereo not given),79 to 80 °C
19,Cn1cc(C(=O)O)c(=O)c2cc3cc(F)c(N4CCNC(c5ccco5)C4)cc3nc21 (racemic),258 to 260 °C
20,C=CCOc1ccc(C=CC(=O)c2c(OC)cc(OC)cc2OC(=O)CC)cc1,83.5 °C
21,CCOC(=O)/C=C/c1cnn(Cc2ccccc2)c1-c1ccccc1,62 to 63 °C
22,CCOc1cc(OCc2cccc(OCc3nc(-c4ccccc4)oc3C)c2)ccc1CCC(=O)O,122 to 123 °C
23,O=S(=O)(N[C@H](CO)[C@@H](c1ccccc1)C(F)(F)F)c1ccc(Cl)cc1,129 to 131 °C
24,COc1ccccc1C(=O)N(C)Cc1cccc(-c2ccc(CC3SC(=O)NC3=O)cc2)c1 (stereo not given),96 °C
25,CC(C)NCc1cccc(Cn2ccc(OCc3ccc(F)cc3F)c(Br)c2=O)c1,109 to 110 °C

row,Compound,melting point
1,CCOC(=O)c1cc(NC(C)=O)c(=O)[nH]c1C(=O)OCC,149 to 151 °C
2,Cc1cccc2c1Sc1c(C)cccc1N2,140 to 141 °C
3,CCCOc1ncc(N(C)C)cc1-c1nc2c(CCC)nn(C)c2c(=O)[nH]1,162 °C
4,O=C(Cl)c1cc(Br)c(C(=O)Cl)cc1Br,80 to 82 °C
5,CCOc1nc(NCc2ccncc2)nc(Nc2ccc3cc[nH]c3c2)n1,198 to 200 °C
6,CCCCCNC(=O)[C@H](Cc1ccc(OCC(=O)O)c(-c2cc(O)no2)c1)NC(=O)[C@H](Cc1ccccc1)NC(=O)OC(C)(C)C,122 to 123 °C
7,CCN1CCN(CC)c2cc(N)ccc2C1=O,140 to 141 °C
8,CC(C)(C1CC1)C(O)(Cn1cncn1)c1ccc(Cl)cc1 (stereo not given),88 to 90 °C
9,O=[N+]([O-])c1ccc2c(c1)S(=O)(=O)N=C(NC1CCC1)N2,298 to 301 °C
10,Cn1c(C=[N+](C)[O-])cnc1[N+](=O)[O-],208 to 209 °C
11,CCS(=O)(=O)N(CCN(C)C(C)=O)c1ccc(N)cc1,140 °C
12,Cc1oc(-c2ccccc2)nc1COc1ccccc1COc1ccc(CC(=O)O)cc1,173 to 174 °C
13,COc1ccc2c(c1)C(Oc1ccccc1)=C(C(=O)O)S2=O (stereo not given),204 to 206 °C
14,CNC(=O)c1ccc(CN2CCN(c3nc(C)c(-c4cc(C)n[nH]4)s3)C2=O)cc1,236 to 238 °C
15,CCN(CC)CCNC(=O)c1nc(Cl)c(N)nc1OC,158 °C
16,Cc1cccc(C(=O)O)c1N(C)S(=O)(=O)c1ccc(OCCCNC(=O)c2cc3ccccc3[nH]2)cc1,199 °C
17,CC(C)C[C@H](N)C(=O)NCCCCNC(=O)c1ccccc1,146 to 148 °C
18,COC(=O)c1ccc2c(c1)C(=O)C(CC=O)C2 (racemic),92 °C
19,CCOc1cc(C(CC(=O)OC)N2Cc3ccccc3C2=O)ccc1OC (stereo not given),78 to 80 °C
20,CN(C)C(=O)c1noc(-c2cnccc2C(F)(F)F)n1,52 to 54 °C
21,Cc1oc(-c2ccccc2)nc1COc1cccc(/C=C/CO)c1,118 to 119 °C
22,O=C(N[C@H](Cc1ccc(C(F)(F)F)cc1)[C@@H](O)c1ccc(F)cc1)c1ccnc2ccccc12 (racemic),227 to 228 °C
23,COc1ccc(Cn2c(=O)c(=NNc3ccccc3)c(=O)n(CC34CC5CC(CC(C5)C3)C4)c3ccccc32)cc1,170 to 188 °C
24,CCCN(CCC)C1COc2cccc(C(=O)c3ccc(F)cc3)c2C1 (stereo not given),60 to 62 °C
25,CCCc1ccc(CCCCCCCC(=O)O)cc1,42 to 43 °C

row,Compound,melting point
1,O=Cc1ccc(-c2cc(Br)ccn2)o1,105 to 106 °C
2,NC1=Nc2ccc([N+](=O)[O-])cc2C(c2ccccc2Cl)=NC1,222 to 224 °C
3,CCCCCCCCCCCCCCCCCCOc1cc(NC(=O)OCc2ccccc2)cc(OC(C)=O)c1,57 to 59 °C
4,N#Cc1cc2c(c(N3CCN(CCCCN4C(=O)c5ccccc5S4(=O)=O)CC3)c1)OCCO2,162 to 164 °C
5,O=C(CC1CCCC1)NC[C@H]1CN(c2ccc3c(c2)CCCc2cnoc2-3)C(=O)O1,193 to 195 °C
6,COc1cc(N)c(Cl)cc1C(=O)NCC1CCN(CCCCCC(=O)c2ccccc2)CC1,138 to 141 °C
7,O=C(c1c[nH]c2cc(Oc3ccc(F)cc3)ccc12)C1CSC(c2cccnc2)N1 (stereo not given),189 to 191 °C
8,CNc1cc(N2CCOCC2)nc(N2CCOCC2)n1,127 to 128 °C
9,O=c1[nH]c2ccccc2n1OCc1ccccc1,92 to 95 °C
10,CC(C)(c1ccc(Oc2cccc(N)c2)cc1)c1ccc(Oc2cccc(N)c2)cc1,106 to 108 °C
11,CNC(=S)NS(=O)(=O)c1cc(CCNC(=O)/C=C/c2cccs2)ccc1OCCOC(F)(F)F,161 to 163 °C
12,O=C(NO)NCCCCC1CCSS1 (stereo not given),100 to 101 °C
13,CCCC(=O)OCOC(=O)C1=C(C)NC(C)=C(C(=O)OC)C1c1cccc(Cl)c1Cl (stereo not given),128 to 129 °C
14,CCN1C(=O)C(C)(C)C(=O)N(C)c2cc(CN(CCn3ccc4sccc4c3=O)Cc3cnccc3C)ccc21,145 to 147 °C
15,Cc1cc(-c2ccc(S(N)(=O)=O)cc2)n(-c2ccc(SSc3ccc(-n4cc(C)cc4-c4ccc(S(N)(=O)=O)cc4)cc3)cc2)c1,251 to 255 °C
16,Cc1ccc(-c2cccc(/C=C/C(=O)Nc3ccc(CN4CCCC(O)C4)cc3)c2)cc1 (stereo not given),132 to 134 °C
17,O=C(O)C(O)N1C(=O)CCN1c1ccc(Cl)cc1 (stereo not given),149 to 151 °C
18,CC(C)(C)OC(=O)N1CCC[C@@H]1[C@@H](NC(=O)c1ccc(Cl)cc1)NC(=NC#N)Nc1cccnc1,184 to 185 °C
19,COc1ccc(Cn2cc[nH]c2=S)cc1,140 °C
20,CCC(CC)n1nc(C)c2c(NN3CCc4cc(Br)cc(Br)c43)nc(C)nc21,190 to 191 °C
21,O=C1Nc2ccc(Cl)cc2C1(O)c1cccc2c1OCO2 (stereo not given),271 °C
22,CC(=O)N1CCN(c2c(-c3ccccc3)sc3ccccc23)CC1,167 to 169 °C
23,Cc1c(C(=O)Nc2ccc(N3CCC(N4CCOCC4)CC3)c(C#N)c2)cnn1-c1ccc(I)cc1,280 °C
24,CN1CCN(CCn2c3ccccc3c(=NN=C3NCCS3)c3ccccc32)CC1,204 to 205 °C
25,CCOC(=O)/C(=N\OC(C)(C)C)c1csc(N)n1,111 to 112 °C

row,Compound,melting point
1,Oc1ccc2cc(I)ccc2c1,136 to 138 °C
2,CCOC(=O)c1cn(-c2ccc(F)cc2)nc1C,103 to 104 °C
3,CCn1nc(-c2ccccc2)c(C(=O)CCc2ccccc2)c(N)c1=O,115 to 116 °C
4,O=C1NC(C(=O)NCCO[N+](=O)[O-])C(c2cccnc2)S1 (stereo not given),139 to 140 °C
5,CN(C)CCCOc1c(Cl)cc(-c2nnc(CSCCOc3ccccc3)o2)cc1Cl,95 to 99 °C
6,Oc1cccc2c(Oc3ccccc3)cccc12,82 to 83 °C
7,Cn1ncc2c(=O)n3c(nc21)SCCCC3,157 °C
8,CCOc1ccccc1O[C@@H](c1ccccc1)[C@@H](CO)OS(C)(=O)=O (racemic),83 to 86 °C
9,COC(=O)c1cccc2nc(-c3ccccc3)oc12,77 °C
10,NS(=O)(=O)c1ccc(-n2nc(CCCNC(=O)Nc3ccccc3)cc2-c2ccccc2)cc1,171 to 172 °C
11,NS(=O)(=O)c1ccc(NC(=O)CNc2ccccc2)c(Cl)c1,185 to 186 °C
12,COc1ccc([C@@H]2Sc3cc(C)c(C)cc3N(CCN(C)C)C(=O)[C@@H]2O)cc1,117 to 118 °C
13,C=CCNC(=Nc1ccc(-c2c[nH]cn2)cc1)S(=O)(=O)O,183 to 184 °C
14,CC/C(=C\C#CC(O)(C(F)(F)F)C(F)(F)F)c1cccc(CCc2ccc(CO)c(CO)c2)c1,123 °C
15,COc1cc(CCl)nc(N)n1,89 to 90 °C
16,"Cc1ccc(S(=O)(=O)OCC(COC(C)(C)C)OS(=O)(=O)c2ccc(C)cc2)cc1 (single isomer, unassigned; (+))",70 to 71 °C
17,O=C1CCC(C(=O)c2ccccc2)N1 (stereo not given),175 °C
18,CC(=O)Nc1ncnc2[nH]nc(C#N)c12,> 360 °C
19,CC(C)C(=O)Nc1ccc(I)c(C(F)(F)F)c1,143 to 145 °C
20,CC(=O)OCC(CCn1cnc2nc(N)ncc21)COC(C)=O,137 to 139 °C
21,CCNC(=O)Cc1ccc(C(=O)c2ccc(Cl)cc2)n1C,187 to 188 °C
22,COc1ccccc1N1CCN(CCn2c(=O)c3cscc3n(C(C)=O)c2=O)CC1,128 to 129 °C
23,Cc1cn(-c2ccc(N3C[C@H](CO)OC3=O)cc2F)cn1,151 to 153 °C
24,CNC1(Cc2ccccc2)C(=O)Nc2ccc(Cl)cc21 (stereo not given),196 °C
25,CC(C)OC(=O)Cn1c(=O)n(C)c(=O)n(-c2cc(N3C(=O)c4cccc(F)c4C3=O)c(F)cc2Cl)c1=O,119 to 125 °C

# Source: a melting point compilation (Tetko et al.; mined from patent text by program, amines drawn as free bases though some values may be those of a salt)
